The record followed here is patent US6660879B2, “3-aryl-2-hydroxypropionic acid derivative I” (AstraZeneca AB, priority 1998, dated 2003).

This data set concerns obese diabetic mice of the Umeå ob/ob strain. The experiment in a line: Biological activity in obese diabetic ob/ob mice (plasma glucose, insulin, triglycerides; weight gain). Type of data set: in vivo. Particulars: gavage once daily for 7 days. The procedure:
The biological activity of the compound of the invention was tested in obese diabetic mice of the Umea ob/ob strain. Groups of mice received the test compound by gavage once daily for 7 days. On the last day of the experiment the animals were anesthetized 2h after dose in a non-fed state and blood was collected from an incised artery. Plasma was analyzed for concentration of glucose, insulin and triglycerides. A group of untreated obese diabetic mice of the same age served as control. The weight of the mice was measured before and after the experiment and the obtained weight gain was compared to the weight gain of the control animals. The individual values for glucose, insulin and triglyceride levels of the mice from the test group were expressed as the percent rage of the corresponding values from the control group.
The desired “therapeutic effect” was calculated as the average percent reduction of the three variables glucose, insulin and triglycerides below the levels in the control animals. The therapeutic effect of the tested compounds according to the invention was compared to the same effect in the prior art compound troglitazone, administrered by gavage in the oral dose of 100 μmol/kg for 7 days.

For `CCO[C@@H](Cc1ccc(OCCc2ccc(OS(C)(=O)=O)cc2)cc1)C(=O)O` [Example 1, (S)-2-Ethoxy-3-[4-(2-{4-methanesulfonyloxyphenyl}ethoxy)phenyl]propanoic acid], the “therapeutic effect (average percent reduction of glucose, insulin and triglycerides below the levels in the control animals)” value (plasma 2h after last dose, non-fed, compared to troglitazone given in the same oral dose (100 μmol/kg for 7 days)) was “superior effects”. For the same compound, the “weight gain compared to the weight gain of the control animals” value (weight measured before and after the experiment) is “without undesirable weight gain”.
